# Measurements as given in a melting point compilation (Tetko et al.; mined from patent text by program, amines drawn as free bases though some values may be those of a salt).
row,SMILES,melting point
1,FC(F)(F)c1cc2[nH]c(N3CCN(c4ncccc4C(F)(F)F)CC3)nc2cc1Cl,206 to 208 °C
2,CS(=O)(=O)c1ccc(-c2oc(C3CCCCC3)nc2-c2ccc(F)cc2)cc1,127 to 128 °C
3,CCCCCCNC(=O)CSc1nc(Cl)cc(Nc2cccc(C)c2C)n1,116 to 118 °C
4,CC(C)(C)C(NC(=O)CCc1ccccc1)Nc1c(Nc2cccnc2)c(=O)c1=O (stereo not given),219 to 220 °C
5,CN(C(CCN1C(=O)CNC1=O)C(=O)NO)S(=O)(=O)c1ccc(Oc2ccccc2)cc1 (stereo not given),146 to 147 °C
6,CCOC(=O)c1nnc2ccc(C(C)=O)cc2c1O,250 to 252 °C
7,"O=S(=O)(C1CC1)C(F)(F)C(O)(Cn1cncn1)c1ccc(F)cc1 (single isomer, unassigned; (+))",144 to 145 °C
8,COc1ccc(C(=O)NCCSSCCNC(=O)c2ccc(OC)cc2)cc1,136 to 138 °C
9,COC(=O)c1c(OCc2ccccc2)ccc2c1CC[C@@H](NC1CCC1)[C@@H]2O (relative stereo),117 to 119 °C
10,CC(=O)Nc1ccc2c(c1)NC(=O)C2=C(C)C,93 °C
11,COc1cccc2c1C(=O)N(CC(=O)N1c3ccccc3N(Cc3ccccc3)C(=O)[C@H]3CCC[C@H]31)C2=O (relative stereo),247 to 248 °C
12,O=C(O)c1nccnc1N1CCN(CC(O)CO)CC1 (stereo not given),175 to 184 °C
13,COc1c(C)c(C(=O)c2ccc3c(c2)c(=O)n(CC(=O)N(C)C)c(=O)n3C)n2ccccc12,276 °C
14,Oc1ccc(Nc2nc(NCc3ccco3)nc(N3CCOCC3)n2)cc1,163 to 165 °C
15,CC(C)(C)c1ccc(COc2ccc(S(=O)(=O)NC[C@@H](C(=O)NO)N3CCOCC3)cc2)cc1,137 °C
16,CCc1nc2c(C)cc(C)nc2n1Cc1cccc(C(=Cc2nnn[nH]2)c2ccccc2)c1,187 to 195 °C
17,O=C(O)Cc1c(C(=O)c2cc3ccccc3cn2)[nH]c2ccc(Cl)cc12,239 to 240 °C
18,COC(=O)C=Cc1ccc(Cl)c(C(F)(F)F)c1,71 to 73 °C
19,CN(c1cccc2cc(C3=NCC(CC(=O)NS(C)(=O)=O)S3)[nH]c12)S(=O)(=O)c1cccs1 (stereo not given),141 °C
20,CCC1c2cccn2-c2ccc(F)cc2N1C(=O)c1ccc(OC)cc1OC (stereo not given),131 to 132 °C
21,Cc1cc(Cc2ccccc2)nc(Nc2ccc(C(=O)NN)c(F)c2)n1,191 to 193 °C
22,O=C(Nc1ccccc1S(=O)(=O)NCCCn1cccn1)c1cccc(C(F)(F)F)c1,108 to 111 °C
23,CNc1nc(C#N)c(-c2ccncc2)s1,192 to 195 °C
24,COc1ccc(-c2nc(Cl)c(Oc3ccccc3OC)c(Cl)n2)cc1,113 to 114 °C
25,[N-]=[N+]=NCCc1c[nH]c(=O)[nH]c1=O,230 to 235 °C

row,SMILES,melting point
1,COC(=O)c1ccc(OC(=O)c2ccccc2)cc1OC,91 °C
2,N#CC1Cc2cc3cc[nH]c3cc21 (stereo not given),126 to 128 °C
3,CC(C)c1nsc(N=CN(C)C)c1C#N,95 to 97 °C
4,COc1cc(NC(=O)Nc2ccc(N3CCN(C(=O)Nc4cc(OCCO)ccc4Cl)CC3)cc2)cc(OC)c1,191 to 192 °C
5,Cc1cccc(Nc2cc(-c3c(-c4cccc(C)c4)nc4cccnn34)ccn2)c1,195 to 196 °C
6,CC(C)Oc1ccc(/C=C(\NC(=O)c2ccc(OCCC(F)(F)F)cc2)C(=O)NCCO)cc1,84 to 86 °C
7,O=C(O)C1=Cc2cc(C(=O)c3ccc(O)cc3)ccc2OC1C(F)(F)F (stereo not given),234 to 240 °C
8,CC(C)OC(=O)c1cc(-n2c(=O)c3c(n(C)c2=O)OCC3)c(F)cc1Cl,170 to 173 °C
9,CN(C)C=C(C#N)CC#N,49 °C
10,O=C(SCCC(=O)N1c2ccccc2CC1C(=O)O)c1ccccc1 (stereo not given),173 to 175 °C
11,CN(CCO)CC1(SSC2(CN(C)CCO)CCCCC2)CCCCC1,65 to 70 °C
12,Oc1ccc2c(c1)nnc1ccccc12,274 to 277 °C
13,Cc1cc(=O)n2nc(-c3ccc(F)cc3)c(-c3ccncc3)c2[nH]1,> 280 °C
14,Clc1cccc(Nc2ncnc(-c3ccnc(Cl)c3)n2)c1,178 to 180 °C
15,O=C(O)C1=Cc2cc(C(F)(F)F)ccc2NC1C(F)(F)F (stereo not given),150 to 156 °C
16,CC(C)c1cc(/C=C/C(=O)O)n(Cc2ccc(Cl)cc2Cl)n1,174 to 175 °C
17,COC(=O)c1nc(-c2ccc(Cl)c(OC)c2F)c(F)c(NC(C)=O)c1Cl,175 to 177 °C
18,CC(C)(CCl)C(O)C(Oc1ccc(Cl)cc1)n1ccnc1 (stereo not given),120 to 125 °C
19,O=C(c1cc(-c2cccnc2)c(N2CCOCC2)s1)c1ccc(Cl)cc1Cl,176 °C
20,CCOC(=O)c1c(OCC)c2ccc(C)nc2n(CC)c1=O,77 to 79 °C
21,O=C(Cc1c[nH]c2ccccc12)Nc1ccccc1C(=O)Nc1ccccc1,235 to 236 °C
22,CC(C)(O)COc1c(-c2ccc(S(C)(=O)=O)cc2)cnn(-c2ccc(F)cc2)c1=O,152 to 154 °C
23,O=Cc1c(N2CCNCC2)n(Cc2ccccc2)c2ccccc12,163 to 165 °C
24,COc1ccc(O)c(C(=O)N2CC(Oc3ccc(NC(=O)OC(C)(C)C)cc3)C2)c1,152 to 153 °C
25,COC(=O)/C=C(\Oc1ccc(F)cc1)C(=O)OC,60 to 61 °C

row,SMILES,melting point
1,COc1cc(C)c(NC(=O)OC(C)(C)C)c(C)c1C,104 to 106 °C
2,COc1cc(C=CC(=O)c2ccc(N(C)C)cc2)cc(OC)c1,155 to 156 °C
3,COC(=O)Cc1c(-c2ccc3c(c2)OCO3)c2ccccc2n(Cc2ccccc2OC)c1=O,71 to 72 °C
4,COc1c(C=CC(=O)O)cccc1Oc1ccccc1Cl,145 to 147 °C
5,CN(C)c1c(Cl)cc(C(O)CNC(C)(C)C)cc1Cl (stereo not given),96 to 99 °C
6,C[Si](C)(C)C#CCn1nc(-c2ccc(F)c(Br)c2)ncc1=O,103 to 105 °C
7,CN(C)CCCC1(O)c2ccccc2OC12CCCCCC2 (stereo not given),96 to 98.5 °C
8,CCOC(=O)C(CCCCCCN1C(=O)c2ccccc2C1=O)(NC(C)=O)C(=O)OCC,68.5 to 70 °C
9,CC(C)(C)c1cccc(CC(O)CO)c1OCc1ccccc1 (stereo not given),79 to 81 °C
10,C#CCn1c(-c2ccccc2)nc(CC)c(O)c1=O,152 to 154 °C
11,N#CC(C#N)=C1Sc2nc3cc([N+](=O)[O-])c([N+](=O)[O-])cc3nc2S1,> 300 °C
12,CCOC(=O)CCNCC(O)COc1cccc(C#N)c1 (stereo not given),95 °C
13,CC(C)(C)OC(=O)NCCNC(=O)c1cccc(Cl)n1,114 to 115 °C
14,CCCCCCN1c2ccccc2NC(=O)c2cscc21,112 to 113 °C
15,CC(NC(=O)C(C)(C(C)C)C(C)C)c1ccco1 (stereo not given),57 to 60 °C
16,c1ccc2c(Nc3ccc4c(c3)CCC4)ncc(Sc3ccncc3)c2c1,100 to 103 °C
17,O=C(CSc1n[nH]c(-c2ccco2)n1)C12CC3CC(CC(C3)C1)C2,177 to 178 °C
18,CCOC(=O)c1cc2cc(OCCCOC)cc(N)c2[nH]1,139 to 140 °C
19,Cn1nc(C(F)(F)F)cc1Oc1nc(Oc2cc(C(F)(F)F)nn2C)c(F)c(Oc2cc(C(F)(F)F)nn2C)c1F,119 °C
20,CCc1nc2c(N)nc3cccnc3c2n1CCCCCC(N)=O,220 to 221 °C
21,CC(C)N(CCN1C(=O)/C(=N/NC(=O)NC2CCCCC2)c2cc(Br)ccc21)C(C)C,155 to 156 °C
22,CCCn1c(-c2ccc(O)cc2)cnc1SC,157 °C
23,C=CC[C@H](C(N)=O)[C@@H](CC(C)C)C(=O)NC1N=C(N2CCCCCC2)c2ccccc2N(C)C1=O (stereo not given in full),232 to 237 °C
24,O=C1OC(CO)CN1c1ccc(N2CC3CSCC3C2)c(F)c1 (stereo not given),165 to 167 °C
25,O=C1CN2Cc3ccc(OCCCC(=O)N(CCO)CCCCC4CCCCC4)cc3N=C2N1,113 to 114 °C

row,SMILES,melting point
1,CCCc1c(OCCCc2ccc3cc(OC)c(OC)cc3c2)ccc(C(=O)O)c1O,165 to 168 °C
2,CC(C)Oc1ccc(N2CCCN(c3cc[nH]c(=S)c3C#N)CC2)cc1,216 to 218 °C
3,O=C(O)c1c(Br)ccc(OC(F)(F)F)c1F,112 °C
4,COC(=O)C#Cc1c(C#N)nn(-c2c(Cl)cc(C(F)(F)F)cc2Cl)c1N,201 to 202 °C
5,O=C1C(=O)N(CCCCN2CCN(C(c3ccccc3)c3ccccc3)CC2)c2ccccc21,127 to 129 °C
6,CC(C)C1NCC(=O)N1CC(N)=O (stereo not given),64 °C
7,CCOC(=O)C=CC(=CN)C(=O)OCC,109 °C
8,O=S(=O)(COc1ccc(Cl)cc1)c1ccc(Cl)cc1,114 °C
9,Cc1ccccc1Cn1cccc1C(=O)CC(=O)C(=O)O,176 to 178 °C
10,O=[N+]([O-])c1cn2c(n1)OC[C@@H](OCc1ccc(Br)cn1)C2,171 to 173 °C
11,CC(Cl)(Cl)C(NC(=O)c1cccc(Cl)c1)NC(=NC#N)Nc1ccccc1F (stereo not given),136 to 138 °C
12,O=C(Nc1ccc(OC(F)(F)F)cc1)NC1CCN(C(=O)C2CC2)CC1,195 to 196 °C
13,CC1(C)Cc2c(sc(N)c2C(N)=O)C(C)(C)C1,140 to 145 °C
14,CC1=C2C(Br)CC3C4CCCC4(C)CCC3C2(C)CCC1=O (stereo not given),124 to 125 °C
15,CC(=O)Oc1c(C)c(C)c2c(c1C)C(O)CC(C)(COc1ccc([N+](=O)[O-])cc1)O2 (stereo not given),139 to 141 °C
16,CCOC(=O)c1nn(Cc2ccccc2F)c2ncccc12,85 °C
17,COc1ccc(NC(=O)OC(C)(C)C)c(C(=O)NCCc2ccc(N=C(N)c3cccs3)cc2)c1,190 to 192 °C
18,Cc1ccc2[nH]c3c(c2c1)C(C(=O)OCc1ccccc1)CCC3 (stereo not given),115 to 117 °C
19,CCOc1ccc(-c2ccc3c(c2)C=C(C(=O)O)CCN3C=O)cc1F,220 to 222 °C
20,O=C(Nc1ccc(C(=O)N2CC(C(=O)O)Cc3ccccc32)cc1)c1cc(Cl)cc(Cl)c1 (stereo not given),221 to 223 °C
21,Cc1nc(N)ccc1-c1ccncc1,207 to 209 °C
22,CCS(=O)(=O)Nc1cc(-n2ncc(N(C)C)c(Cl)c2=O)c(F)cc1C#N,206 °C
23,CCCc1c(-c2cc(=O)c3c(O)c(CCC)c(OCC4=COC(C)(C)O4)cc3o2)ccc(OC)c1O,148 °C
24,Cc1ccc(C(O)Cc2nc(C)c(C)nc2C)cc1 (stereo not given),99 to 101 °C
25,Cn1nnc2c(N3CCOCC3)nc(-c3ccc(NC(=O)Nc4ccsc4)cc3)nc21,272 °C
